Source: the supplement of paper PMC11208160

test: recombinant barcode read abundance after kanamycin selection (control-corrected) (log10(CPM+1)); higher = more efficient recombination; sequences stand for … in AGTGCAGAGAAAATCGGCCAGTTTTCTCTGCCTGCAGTCCGCATGCCGT…AGATTTATGCAGCGGACTGCCTTTCTCCCAAAGTGATAAACCGGACAGTATCATGGACCGGTTTTCCCGGTAATCCGTATTTGCAAGGTTGGTTTCACT; site = the 11-nt target
How it was run: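 In a pooled screen in E. coli, targets were paired with target-binding loops of the IS621 bridge RNA. Each oligo carried a promoter, a target, a barcode and the first 104 bridge RNA bases driven by J23119, and was Gibson-cloned into a vector holding the remaining 73 bp and a T7-inducible recombinase before co-electroporation with a donor plasmid. Duplicate platings went onto chloramphenicol/ampicillin LB agar as the control or onto chloramphenicol/ampicillin/kanamycin with 0.1 mM IPTG. Recombination efficiency is the averaged, control-corrected count per million of barcodes at recombinant junctions, given as log10(CPM+1).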
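Also: IS621 recombinase and bridge RNA in Escherichia coli cells.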

Going from “ACTATCCCTTGGGTTCTAACCTGTTGCGG (site ACTAGGCCTCC)” to “ACTATCCCTTGGGTTCTAACCTGTTGCGG (site ACTATCCCTCC)”, the “recombinant barcode read abundance (log10)” value rises from 0.283 to 1.16.

Compared with “ACTCGCTCTTGGGTTCTAACCTGTTGCAC (site ACTCGCTCTGT)”, “ACTCGCTCTTGGGTTCTAACCTGTTGCAC (site GGGACTACTCG)” is lower in “recombinant barcode read abundance (log10)” value: 1.5 for the first, 0.0345 for the second.

“ACTCTGGCTTGGGTTCTAACCTGTTGCCT (site ACACTGGCTAG)” and “ACTCTGGCTTGGGTTCTAACCTGTTGCCT (site ACCCTGGCTAG)” are within 0.2 log units of each other in “recombinant barcode read abundance (log10)” value: 0.0916 for the first, 0.256 for the second.

“ACTCTGGCTTGGGTTCTAACCTGTTGCCT (site ACGCTGGCTAG)” and “ACTCTGGCTTGGGTTCTAACCTGTTGCCT (site ACTCTGGCTAG)” are within 0.2 log units of each other in “recombinant barcode read abundance (log10)” value: 0.254 for the first, 0.372 for the second.

First: ACTGAGTCTTGGGTTCTAACCTGTTGCAA (site ACTGAGTCTAT)
Second: ACTGAGTCTTGGGTTCTAACCTGTTGCAA (site ACTGAGTCTTT)
The “recombinant barcode read abundance (log10)” value of the first is lower: 0.0772 for the first, 1.87 for the second.

“ACTGATTCTTGGGTTCTAACCTGTTGCCT (site ACTGATACTAG)” and “ACTGATTCTTGGGTTCTAACCTGTTGCCT (site ACTGATCCTAG)” are within 0.2 log units of each other in “recombinant barcode read abundance (log10)” value: 0.214 for the first, 0.0546 for the second.

First: ACTGATTCTTGGGTTCTAACCTGTTGCCT (site ACTGATGCTAG)
Second: ACTGATTCTTGGGTTCTAACCTGTTGCCT (site ACTGATTCTAG)
The “recombinant barcode read abundance (log10)” value of the first is lower: 0.0541 for the first, 1.34 for the second.

First: ACTGCGGCTTGGGTTCTAACCTGTTGCCT (site AATTCGGCTAG)
Second: ACTGCGGCTTGGGTTCTAACCTGTTGCCT (site ACTGCGGCTAG)
The “recombinant barcode read abundance (log10)” value of the first is lower: 0.136 for the first, 0.617 for the second.

Compared with “ACTGCGTCTTGGGTTCTAACCTGTTGCCT (site ACTCCGTCTAG)”, “ACTGCGTCTTGGGTTCTAACCTGTTGCCT (site ACTGCGTCTAG)” is higher in “recombinant barcode read abundance (log10)” value: 0.119 for the first, 1.6 for the second.

First: ACTGCTCCTTGGGTTCTAACCTGTTGCCT (site ACTGCTCCTAG)
Second: ACTGCTCCTTGGGTTCTAACCTGTTGCCT (site CTCTGAGCTCT)
The “recombinant barcode read abundance (log10)” value of the first is higher: 0.881 for the first, 0.0903 for the second.

First: ACTGGGCCTTGGGTTCTAACCTGTTGCGA (site ACTCGGCCTTC)
Second: ACTGGGCCTTGGGTTCTAACCTGTTGCGA (site ACTGGGCCTTC)
The “recombinant barcode read abundance (log10)” value of the first is lower: 0.191 for the first, 2.67 for the second.

“ACTGTAACTTGGGTTCTAACCTGTTGCTT (site ACTATAACTAA)” and “ACTGTAACTTGGGTTCTAACCTGTTGCTT (site ACTCTAACTAA)” are within 0.2 log units of each other in “recombinant barcode read abundance (log10)” value: 0.102 for the first, 0.0186 for the second.

First: ACTGTAACTTGGGTTCTAACCTGTTGCTT (site ACTGTAACTAA)
Second: ACTGTAACTTGGGTTCTAACCTGTTGCTT (site ACTTTAACTAA)
The “recombinant barcode read abundance (log10)” value of the first is higher: 1.06 for the first, 0.0634 for the second.

Going from “ACTTCTGCTTGGGTTCTAACCTGTTGCCT (site ACTTCACCTAG)” to “ACTTCTGCTTGGGTTCTAACCTGTTGCCT (site ACTTCTGCTAG)”, the “recombinant barcode read abundance (log10)” value rises from 0.0609 to 0.528.

First: ACTTGACCTTGGGTTCTAACCTGTTGCAG (site ACTTGACCTCT)
Second: ACTTGACCTTGGGTTCTAACCTGTTGCAG (site ATTTGACCTCG)
The “recombinant barcode read abundance (log10)” value of the first is higher: 1.83 for the first, 0.0223 for the second.

First: ACTTGTTCTTGGGTTCTAACCTGTTGCCT (site ACTTGTTCTAG)
Second: ACTTGTTCTTGGGTTCTAACCTGTTGCCT (site CCTTGTTCTAG)
The “recombinant barcode read abundance (log10)” value of the first is higher: 0.567 for the first, 0.202 for the second.

“ACTTGTTCTTGGGTTCTAACCTGTTGCCT (site GCTTGTTCTAG)” and “ACTTGTTCTTGGGTTCTAACCTGTTGCCT (site TCTTGTTCTAG)” are within 0.2 log units of each other in “recombinant barcode read abundance (log10)” value: 0.157 for the first, 0.0997 for the second.

“ACTTTAGCTTGGGTTCTAACCTGTTGCTT (site ACTTGAACTAA)” and “ACTTTAGCTTGGGTTCTAACCTGTTGCTT (site ACTTTAGCTAA)” are within 0.2 log units of each other in “recombinant barcode read abundance (log10)” value: 0.438 for the first, 0.399 for the second.

Compared with “AGAAAAGCTTGGGTTCTAACCTGTTGCAA (site AGAAAAGCTTT)”, “AGAAAAGCTTGGGTTCTAACCTGTTGCAA (site CATGCTTCTAG)” is lower in “recombinant barcode read abundance (log10)” value: 1.06 for the first, 0.295 for the second.

Compared with “AGAAAGGCTTGGGTTCTAACCTGTTGCGC (site AGAAAGGCTGC)”, “AGAAAGGCTTGGGTTCTAACCTGTTGCGC (site GTGGGCACTAG)” is lower in “recombinant barcode read abundance (log10)” value: 2.32 for the first, 0.0408 for the second.

First: AGAACGTCTTGGGTTCTAACCTGTTGCCT (site AGAACGTCTAG)
Second: AGAACGTCTTGGGTTCTAACCTGTTGCCT (site AGAATGTCTAG)
The “recombinant barcode read abundance (log10)” value of the first is higher: 1.09 for the first, 0.0292 for the second.

Going from “AGAACTCCTTGGGTTCTAACCTGTTGCTG (site AGAACTCCTCA)” to “AGAACTCCTTGGGTTCTAACCTGTTGCTG (site TCTTGCTCTAG)”, the “recombinant barcode read abundance (log10)” value falls from 0.323 to 0.0485.

Going from “AGAAGTCCTTGGGTTCTAACCTGTTGCGG (site AGAAGTCCTCA)” to “AGAAGTCCTTGGGTTCTAACCTGTTGCGG (site AGAAGTCCTCC)”, the “recombinant barcode read abundance (log10)” value rises from 0.0978 to 1.91.

Going from “AGAAGTCCTTGGGTTCTAACCTGTTGCGG (site AGAAGTCCTCG)” to “AGAAGTCCTTGGGTTCTAACCTGTTGCGG (site AGAAGTCCTCT)”, the “recombinant barcode read abundance (log10)” value rises from 0.101 to 1.32.

First: AGACAGACTTGGGTTCTAACCTGTTGCGT (site AGACAGACTAC)
Second: AGACAGACTTGGGTTCTAACCTGTTGCGT (site CAGAGCTCTCG)
The “recombinant barcode read abundance (log10)” value of the first is higher: 3.32 for the first, 0.0309 for the second.

Going from “AGACCATCTTGGGTTCTAACCTGTTGCCT (site AGACCATCTAG)” to “AGACCATCTTGGGTTCTAACCTGTTGCCT (site AGATCATCTAA)”, the “recombinant barcode read abundance (log10)” value falls from 0.751 to 0.162.

First: AGACCCTCTTGGGTTCTAACCTGTTGCCT (site AGACCCTCTAG)
Second: AGACCCTCTTGGGTTCTAACCTGTTGCCT (site CGACCCTCTAG)
The “recombinant barcode read abundance (log10)” value of the first is higher: 2.91 for the first, 0.728 for the second.

Compared with “AGACCCTCTTGGGTTCTAACCTGTTGCCT (site GGACCCTCTAG)”, “AGACCCTCTTGGGTTCTAACCTGTTGCCT (site TGACCCTCTAG)” is higher in “recombinant barcode read abundance (log10)” value: 0.304 for the first, 1.3 for the second.

Compared with “AGACGACCTTGGGTTCTAACCTGTTGCGG (site AGACGACCTCC)”, “AGACGACCTTGGGTTCTAACCTGTTGCGG (site GTCATGTCTGA)” is lower in “recombinant barcode read abundance (log10)” value: 2.95 for the first, 0.016 for the second.

“AGACTAACTTGGGTTCTAACCTGTTGCCT (site AAACTAACTAG)” and “AGACTAACTTGGGTTCTAACCTGTTGCCT (site ACACTAACTAG)” are within 0.2 log units of each other in “recombinant barcode read abundance (log10)” value: 0.124 for the first, 0.0816 for the second.

First: AGACTAACTTGGGTTCTAACCTGTTGCCT (site AGACTAACTAG)
Second: AGACTAACTTGGGTTCTAACCTGTTGCCT (site ATACTAACTAG)
The “recombinant barcode read abundance (log10)” value of the first is higher: 1.54 for the first, 0.29 for the second.

Going from “AGACTCCCTTGGGTTCTAACCTGTTGCAC (site ACACGCCCTGT)” to “AGACTCCCTTGGGTTCTAACCTGTTGCAC (site AGACTCCCTGT)”, the “recombinant barcode read abundance (log10)” value rises from 0.0745 to 2.08.

Going from “AGACTGACTTGGGTTCTAACCTGTTGCGG (site AGACTGACTCC)” to “AGACTGACTTGGGTTCTAACCTGTTGCGG (site TCCAAATCTAG)”, the “recombinant barcode read abundance (log10)” value falls from 2.18 to 0.232.

Going from “AGACTGGCTTGGGTTCTAACCTGTTGCCT (site AGACTGGCTAG)” to “AGACTGGCTTGGGTTCTAACCTGTTGCCT (site CGACAGGCTAG)”, the “recombinant barcode read abundance (log10)” value falls from 1.03 to 0.176.

Going from “AGAGAGGCTTGGGTTCTAACCTGTTGCGG (site AGAGAGGCTCC)” to “AGAGAGGCTTGGGTTCTAACCTGTTGCGG (site CGAGAGTCTCC)”, the “recombinant barcode read abundance (log10)” value falls from 1.82 to 0.125.

First: AGAGAGTCTTGGGTTCTAACCTGTTGCTT (site AGAGAGTCTAA)
Second: AGAGAGTCTTGGGTTCTAACCTGTTGCTT (site ATAGAGTCTAA)
The “recombinant barcode read abundance (log10)” value of the first is higher: 1.99 for the first, 0.602 for the second.

Going from “AGAGCGACTTGGGTTCTAACCTGTTGCCT (site AGAGAGACTAG)” to “AGAGCGACTTGGGTTCTAACCTGTTGCCT (site AGAGCGACTAG)”, the “recombinant barcode read abundance (log10)” value rises from 0.127 to 0.727.

First: AGAGCGACTTGGGTTCTAACCTGTTGCCT (site AGAGGGACTAG)
Second: AGAGCGACTTGGGTTCTAACCTGTTGCCT (site AGAGTGACTAG)
The “recombinant barcode read abundance (log10)” value of the first is higher: 0.587 for the first, 0.0332 for the second.

For “AGAGCGACTTGGGTTCTAACCTGTTGCTA (site AGAGCGACTTA)”, the “recombinant barcode read abundance (log10)” value was 0.654.
